Results reported in publication PMC3519673, “Discovery of indole tetrafluorophenoxymethylketone-based potent novel small molecule inhibitors of caspase-3” (Organic and Medicinal Chemistry Letters, 2012).
≈ marks a conversion by molar mass, not a printed value. Where two headings read alike, the source gives them in different places.

Tests used:
Cathepsin-B = target: T1, Cathepsin-B (Homo sapiens, UniProt P07858); test: Cathepsin-B counterscreen assay; type: biochemical; settings: read-out: % inhibition at 10 µM Cathepsin-B; compound 10 µM
T1 construct: purchased Sigma-Aldrich C0150
Experimental: (§1) Screening of compounds was carried out at two different concentrations (1 and 10 μM). Selected compounds were subjected to dose response determination in semi-log concentration (serial threefold dilutions) at constant DMSO concentration of 1% with highest compound concentration at 100 μM. Counterscreening against some of proteases, permeability, and CYP450 inhibition studies was carried out for few selected compounds at 10 μM concentration.
(§2) Thrombin assay reaction mixture (100 μl) contained 140 ng of enzyme and 100 μM of substrate (Boc-Glu-Ala-Arg-AMC) in Tris–HCl buffer pH 8.5. Cathepsin-B assay buffer contained 50 mM MES, 0.01% CHAPS, 100 μM of substrate (Z-Phe-Arg-AMC HCl), and 0.1 U of enzyme. […] The enzyme activities were monitored (ex/em 355/460) as a time-course measurement of the increase in fluorescence signal from fluorescently labeled peptide substrate for 120 min at room temperature. Percent inhibition calculation was calculated using following equation:
(§3) Percent inhibition=100−[RFU in test wells/RFU in basal control wells×100]

[1] = Kinetic aqueous solubility (shake flask, 96-well); type: physicochemical; settings: pH 7.4, aqueous buffer, kinetic from dmso stock
Experimental: After 16 h of incubation, the supernatant was subjected for analysis.

Microsomal stability = type: in vitro ADME; settings: mouse liver microsomes, 1 µM, NADPH and UDPGA
Experimental: Mouse liver microsomes (in-house prepared) and pooled human liver microsomes (BD Gentest, CA, USA) were incubated with 1-μM test compounds at 37°C for 15 and 60 min using NADPH and UDPGA as co-factors. The reaction was stopped by the addition of cold acetonitrile, precipitated protein was removed, and the supernatants were analyzed.

caspase-1 = target: T2, caspase-1 (Homo sapiens, UniProt P29466); test: Caspase-1 counterscreen assay; type: biochemical; settings: read-out: % inhibition at 10 µM Caspase-1; compound 10 µM
T2 construct: purchased Enzo Life Sciences, Inc. BML-AK701
T2 sequence (P29466 120-297 limits assumed): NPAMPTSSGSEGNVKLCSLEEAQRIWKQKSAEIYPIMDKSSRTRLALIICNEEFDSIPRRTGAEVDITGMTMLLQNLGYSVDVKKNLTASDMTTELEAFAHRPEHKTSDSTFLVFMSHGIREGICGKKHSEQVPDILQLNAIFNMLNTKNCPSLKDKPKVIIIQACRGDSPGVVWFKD
T2 sequence (P29466 317-404 limits assumed): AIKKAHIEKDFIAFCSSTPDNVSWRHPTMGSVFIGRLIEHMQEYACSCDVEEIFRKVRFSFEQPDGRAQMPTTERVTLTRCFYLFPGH
Experimental: as §1
The ability of NCEs to inhibit the activity of human recombinant caspases as well as other proteases was determined using a standard fluorometric microplate assay as described in [1, 10]. The assay buffer contained 25 mM sodium HEPES, 50 mM KCl, 0.1% CHAPS, and 1 mM β-mercaptoethanol, pH7.4. To a reaction mixture (100 μL) containing the above buffer, 10 μM AC-DEVD-AMC and 10 U caspase-3 were added in a black 96-well microplate. Activities of the other caspases were determined similarly using the corresponding fluorogenic substrates: 50 U of caspase-1 and 10 μM N-acetyl-Tyr-Val-Ala-Asp-7-amido-4-methylcoumarin.
as §3

[2] = tested on: Jurkat (human T-cell leukemia) cell line; test: Anti-apoptotic assay using Jurkat T-cells (staurosporine-induced cell death, resazurin); type: cell-based; settings: compound 10 µM, staurosporine 100 nM, 48 h
Experimental: The anti-apototic assay was done as described in [10]. Briefly, Jurkat (human T-cell leukemia) cell line (ATCC) was cultured in RPMI-1640 medium with L-glutamine and supplemented with 10% fetal bovine serum and antibiotic solution. Cells were grown at 37°C in 5% CO2 and 95% air environment at 100% humidity. Cells were plated in 45 μL/well of serum-free medium at 2.5 × 10^5 cells/mL and incubated for 1 h before compound addition. Compound stock solutions were diluted with growth medium and added to the cells to obtain desired concentration. One percent DMSO was used for control wells (without the addition of compounds). […] Cells were further incubated for 120 min, and the fluorescence was measured using the Wallac Victor2V plate reader (PerkinElmer Life Sciences) at 531/589 nm ex/em wavelengths. The percent protection from induced apoptosis was calculated using the following equation: […]
where ΔFl denotes the difference in resazurin fluorescence measured at point 0 and after 120-min incubation with the cells; subscripts t, s, and n are fluorescence in the presence of a test compound + staurosporine, staurosporine alone, and no staurosporine, respectively.
Protection against cellular apoptosis was determined using staurosporine as apoptotic inducer in Jurkat cells (human T-cell leukemia), as described in the ‘Methods’ section. […]

caspase-3 = target: T3, caspase-3 (Homo sapiens, UniProt P42574); test: Caspase-3 fluorometric inhibition assay (AC-DEVD-AMC substrate); type: biochemical; settings: 10 µM AC-DEVD-AMC, 10 U caspase-3
T3 construct: purchased Sigma-Aldrich C1224
T3 sequence (P42574 29-175 limits assumed): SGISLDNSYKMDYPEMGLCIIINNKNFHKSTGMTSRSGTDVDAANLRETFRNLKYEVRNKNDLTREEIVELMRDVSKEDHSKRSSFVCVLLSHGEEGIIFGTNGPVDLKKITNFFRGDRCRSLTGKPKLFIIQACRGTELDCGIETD
T3 sequence (P42574 176-277 limits assumed): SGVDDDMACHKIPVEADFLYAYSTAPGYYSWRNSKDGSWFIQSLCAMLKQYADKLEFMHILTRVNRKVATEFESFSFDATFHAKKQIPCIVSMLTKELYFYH
Experimental: Fluorescence measurements were done using VICTOR2V 96/384 multilabel plate reader (PerkinElmer Life Sciences, MA, USA) at λex = 360 nm and λem = 460 nm top readout (ex, excitation; em, emission) in Corning black 96-well flat bottom plates. The enzyme activity was measured at 30°C after 30 min. Trans-epithelial resistance (TEER) measurements (for monolayer integrity) were made using instrument from World Precision Instrument (Florida, USA). HPLC (1100 series, Agilent Technologies Inc., CA, USA) was performed on reverse phase column (Zorbax Eclipse XDB C18, 150 × 4.6 mm, 5 μm). LC-MS/MS was performed in multiple reaction monitoring mode using Applied Biosystems API 3200 (Chromos, Singapore) coupled to Agilent Technologies 1100 series HPLC on a reverse phase column (Zorbax Eclipse XDB C18, 50 × 4.6 mm, 5 μm).
Screening of compounds was carried out at two different concentrations (1 and 10 μM). […]
The ability of NCEs to inhibit the activity of human recombinant caspases as well as other proteases was determined using a standard fluorometric microplate assay as described in [1, 10]. […] Activities of the other caspases were determined similarly using the corresponding fluorogenic substrates: 50 U of caspase-1 and 10 μM N-acetyl-Tyr-Val-Ala-Asp-7-amido-4-methylcoumarin. […]

[3] = In vivo pharmacokinetic experiment in mice; settings: mouse, plasma, male NMRI mice
Experimental: Pharmacokinetic profiling was carried out using oral and intravenous route (IV) dosing in male NMRI mice. […] The plasma samples were collected at different time points until 8 hr and were stored frozen at −80°C until analysis. Quantitative bio-analysis of the drugs in the plasma samples was done using an LC-MS/MS. Plasma samples were analyzed following protein precipitation of plasma with acetonitrile containing internal standards.
Curve fitting was performed with Prism 5.1 software (GraphPad Software Inc., San Diego, CA) using built-in equation describing corresponding data models. All the other data were mentioned as mean ± standard deviation of triplicates values. PK parameters were determined using WinNonlin 5.2 software.
Compounds were administered to male NMRI mice either as 1 mg/kg intravenous bolus in 1% (v/v) DMA, 10% (w/v) HP-b-CD in normal saline, or orally by gavage at 5 mg/kg in 1% (v/v) DMA, 1% (w/v) Poloxamer 147, and 10% (w/v) HP-b-CD in saline.

Thrombin = target: T4, Thrombin (Homo sapiens, UniProt P00734); test: Thrombin counterscreen assay; type: biochemical; settings: read-out: % inhibition at 10 µM Thrombin; compound 10 µM
T4 construct: purchased Enzyme Research Laboratories HT1002a
Experimental: as §1, §2, §3

inhibition at 10 µM (Cathepsin-B): 0%
solubility at 16 h [1]: 145 µM (≈ 82.6 µg/mL)
% stable at 60 min MLM (Microsomal stability): 61%
inhibition at 10 µM (caspase-1): 59%
IC50 (caspase-3): 35 nM
Vd ([3]; 1 mg/kg IV): 11.8 L/kg
clearance ([3]; 1 mg/kg IV): 150 mL/min/kg
k el ([3]; 1 mg/kg IV, 5 mg/kg PO): 0.000194 s⁻¹
half-life ([3]; 1 mg/kg IV, 5 mg/kg PO, read-out: Beta t1/2 (converted)): 54 min
AUC(0-inf) ([3]; 1 mg/kg IV, read-out: AUC (0-inf) iv): 111 ng·h/mL
Cmax ([3]; 5 mg/kg PO): 113 ng/mL
Tmax ([3]; 5 mg/kg PO): 30 min
bioavailability ([3]; 5 mg/kg PO vs 1 mg/kg IV, read-out: F (oral bioavailability)): 17.9%
AUC(0-inf) ([3]; 5 mg/kg PO, read-out: AUC (0-inf) po): 99.1 ng·h/mL
inhibition at 10 µM (Thrombin): 7%
SMILES: C[C@H](NC(=O)C(=O)Nc1ccccc1C(C)(C)C)C(=O)N[C@@H](CC(=O)O)C(=O)COc1c(F)c(F)cc(F)c1F [IDN6556]
% protection against staurosporine-induced cell death [2]: 73%
